# Patent US4804660A, “Ergot cyclic peptide alkaloids having a venotonizing effect, useful for treating orthostatic hypotension” (Sandoz Ltd., priority 1981, dated 1989)
# Key:
# [1] = test system: rat; test: apomorphine stereotypy test / stereotypy in the rat; format: in vivo; details: 30 mg/kg i.p.
# Protocol: The compounds moreover induce stereotypy in the rat at a dose of about 30 mg/kg i.p.
# and has a score. in the apomorphine stereotypy test of 15.7 at 30 mg/kg i.p .
# [2] = test system: rat brain; test: carbon-14-2-deoxyglucose autoradiographic technique, local cerebral glucose utilisation; format: in vivo; details: 3 mg/kg i.p.
# Protocol: Moreover the compounds increase the local cerebral glucose utilisation in the sensomotor cartex, e.g. Hippocampus, Nucleus habenula, Nucleus corpus gentcul . As indicated by the carbon-14-2-deoxyglucose autoradiographic technique with the rat brain on administration i.p. of from about 0.3 to about 30 mg/kg of the compounds [for method see e.g. L. Solokoff, Journal of Cerebral Blood Flow and Metabolism, 1981, (1), 7-36, H. E. Savaki et al. Brain Research 1982, 233, 347 and J. McCulloch et al. Journal of Cerebral Blood Flow and Metabolism 1981, 1, 133-136.
substance,measurement,setting,value
"2-methyl-9,10-dihydro-9'-thia-α-ergocryptine",score in the apomorphine stereotypy test,[1],15.7
same,"increase in local cerebral glucose utilisation, Hippocampus",[2]; Hippocampus,+2%
same,"increase in local cerebral glucose utilisation, Nucleus dors.corpus genicul.lat",[2]; Nucleus dors.corpus genicul.lat,+25%
same,"increase in local cerebral glucose utilisation, Nucleus lateralis huberula",[2]; Nucleus lateralis huberula,+22%
